Measurements as given in PMC11308155 (Microbial Cell Factories, 2024).
In brackets after ≈: the same amount, converted by molar mass. Values belong to the compound of their own block, whether it stands above or below them.

Experiments:
[1] = tested on: E. coli clinical isolates; assay: MIC by broth microdilution against clinical isolates of E. coli; format: cell-based
[2] = tested on: CTX-M-15-producer isogenic strain; assay: Disc diffusion test, CTX-M-15-producer; format: cell-based, E. coli; conditions: cefotaxime disc 30 µg
[3] = tested on: isogenic strain producing CTX-M-15; assay: Time-kill kinetic assay, CTX-M-15-producing isogenic strain; format: cell-based, E. coli; conditions: cefotaxime 2 µg/mL + inhibitor 4 µg/mL; CTX-M-15 strain
[4] = tested on: isogenic strain producing KPC-2; assay: Time-kill kinetic assay, KPC-2-producing isogenic strain; format: cell-based, E. coli; conditions: imipenem 4 µg/mL + inhibitor 4 µg/mL, KPC-2 strain
[5] = tested on: K. pneumoniae clinical isolates; assay: MIC by broth microdilution against clinical isolates of K. pneumoniae; format: cell-based; conditions: for MIC range: K. pneumoniae clinical isolates, 25 isolates
[6] = tested on: KPC-2-producer isogenic strain; assay: Disc diffusion test, KPC-2-producer; format: cell-based, E. coli; conditions: imipenem disc 10 µg
CTX-M-15 [7] = biological target: CTX-M-15 (Escherichia coli, UniProt Q9EXV5); assay: Purified β-lactamase inhibition assay with nitrocefin, CTX-M-15; format: biochemical, E. coli
KPC-2 = KPC-2 (Klebsiella pneumoniae, UniProt Q9F663); assay: Purified β-lactamase inhibition assay with nitrocefin, KPC-2; format: biochemical, K. pneumoniae
CTX-M-15 [8] = conditions: ref 17 (Faheem et al.); cited from earlier work

Chain of CTX-M-15 (Escherichia coli, UniProt Q9EXV5) (Q9EXV5 29-291): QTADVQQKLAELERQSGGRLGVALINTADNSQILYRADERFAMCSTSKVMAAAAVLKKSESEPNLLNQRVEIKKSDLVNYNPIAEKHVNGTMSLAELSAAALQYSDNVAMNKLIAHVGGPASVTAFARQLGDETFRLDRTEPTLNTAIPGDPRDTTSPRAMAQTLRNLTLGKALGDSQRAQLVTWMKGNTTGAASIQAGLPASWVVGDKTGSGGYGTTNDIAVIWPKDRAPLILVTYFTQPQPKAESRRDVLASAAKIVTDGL
Chain of KPC-2 (Q9F663 25-293, looked up): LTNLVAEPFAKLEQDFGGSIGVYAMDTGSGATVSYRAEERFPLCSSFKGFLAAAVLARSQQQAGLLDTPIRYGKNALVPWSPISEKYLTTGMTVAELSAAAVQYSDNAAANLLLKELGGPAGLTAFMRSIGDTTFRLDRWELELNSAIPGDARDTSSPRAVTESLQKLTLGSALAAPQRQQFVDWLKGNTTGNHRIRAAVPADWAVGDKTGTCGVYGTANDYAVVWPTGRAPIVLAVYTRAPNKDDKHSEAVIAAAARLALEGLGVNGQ

- MIC90 ([1]; Escherichia coli): 512 µg/mL (≈ 1470 µM)
SMILES: CC1=C(C(=O)O)N2C(=O)[C@@H](NC(=O)[C@H](N)c3ccccc3)[C@H]2SC1 [Cefalexin, cefalexin]

SMILES: CO/N=C(\C(=O)N[C@@H]1C(=O)N2C(C(=O)O)=C(COC(C)=O)CS[C@H]12)c1csc(N)n1 [Cefotaxime, cefotaxime]
- MIC range ([1]; E. coli clinical isolates, 25 isolates): 64 to 128 µg/mL
- disc diffusion result, antibiotic disc only [2]: resistance

SMILES: O=C(O)[C@H]1/C(=C/CO)O[C@@H]2CC(=O)N21 [Clavulanic acid, clavulanic acid]
- incubation time after which viable count was below the limit of detection [3]: 10 h
- reduction in CFU ([4]; after 6 h of incubation): 2 log10

- MIC range [5]: 8 to 256 µg/mL
- MIC range ([5]; listed as ertapenem): 8 to 256 µg/mL
- MIC90 ([5]; Klebsiella pneumoniae): 32 µg/mL (≈ 67.3 µM)
SMILES: C[C@@H](O)[C@H]1C(=O)N2C(C(=O)O)=C(S[C@@H]3CN[C@H](C(=O)Nc4cccc(C(=O)O)c4)C3)[C@H](C)[C@H]12 [Ertapenem, ertapenem]

SMILES: C[C@@H](O)[C@H]1C(=O)N2C(C(=O)O)=C(SCCN=CN)C[C@H]12 [Imipenem, imipenem]
- MIC range [5]: 64 to 512 µg/mL
- disc diffusion result, antibiotic disc only [6]: resistance

SMILES: C[C@]1(Cn2ccnn2)[C@H](C(=O)O)N2C(=O)C[C@H]2S1(=O)=O [Tazobactam, tazobactam]
- IC50 (CTX-M-15 [7]): 58.3 µM
- Ki (CTX-M-15 [7]; Ki, CTX-M-15, nitrocefin substrate): ~31 µM
- IC50 (KPC-2): 69.6 µM
- Ki (KPC-2): 29.2 µM
- incubation time after which viable count was below the limit of detection [3]: 6 h
- incubation time after which viable count was below the limit of detection [4]: 8 h
- decrease of the MICs of some cephalosporin antibiotics (CTX-M-15 [8]): 2–16 folds
